Experimental data taken from US7517874B2 (priority 2007, dated 2009).
Read-outs that look alike come from different tables or passages of the source.

Experiments:
[1] = target: human CB1 receptor (hCB1) (Homo sapiens, UniProt P21554); assay: cell-based; assay type: cell-based
Method in brief: (§1)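 First, cells in IBMX-containing HEPES-buffered HBSS are raised to elevated cAMP with 2-8 μM NKH-477 for 30 min. Data are normalised to the forskolin and forskolin + 1 μM CP55,940 controls.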

[2] = target: T1, rat CB2 receptor (rCB2) (Rattus norvegicus, UniProt Q9QZN9); assay: cell-based; assay type: cell-based; conditions: for +/− RCB2: agonist or inverse agonist at rCB2
T1 sequence (Q9QZN9 1-360): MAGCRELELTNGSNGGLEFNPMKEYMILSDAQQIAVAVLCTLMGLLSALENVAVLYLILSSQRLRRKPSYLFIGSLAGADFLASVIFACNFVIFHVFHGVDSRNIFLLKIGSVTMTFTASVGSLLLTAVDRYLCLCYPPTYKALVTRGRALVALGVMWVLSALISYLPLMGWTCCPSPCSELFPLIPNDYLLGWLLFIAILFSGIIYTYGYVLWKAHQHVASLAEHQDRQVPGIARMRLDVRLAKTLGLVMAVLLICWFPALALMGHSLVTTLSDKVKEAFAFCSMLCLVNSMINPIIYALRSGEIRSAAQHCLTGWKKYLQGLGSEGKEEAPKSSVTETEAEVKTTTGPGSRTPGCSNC
Method in brief: as §1

Sequence of human CB1 receptor (hCB1) (P21554 whole entry): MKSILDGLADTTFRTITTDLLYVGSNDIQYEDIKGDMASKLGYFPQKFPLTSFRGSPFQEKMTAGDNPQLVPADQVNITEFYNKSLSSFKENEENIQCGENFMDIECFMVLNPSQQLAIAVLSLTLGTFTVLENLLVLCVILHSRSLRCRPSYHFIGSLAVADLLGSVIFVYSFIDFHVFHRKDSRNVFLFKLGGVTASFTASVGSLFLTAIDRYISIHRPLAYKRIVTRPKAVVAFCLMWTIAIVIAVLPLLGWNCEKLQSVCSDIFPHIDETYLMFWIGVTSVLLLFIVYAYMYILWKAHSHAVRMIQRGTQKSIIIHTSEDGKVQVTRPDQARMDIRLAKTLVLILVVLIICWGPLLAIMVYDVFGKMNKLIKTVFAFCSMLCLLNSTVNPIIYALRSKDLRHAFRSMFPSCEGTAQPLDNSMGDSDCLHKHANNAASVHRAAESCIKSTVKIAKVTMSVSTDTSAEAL

Compound | EC50 [1] [nM] | +/− RCB2 [2] | EC50 [2] [nM] | further results
CNC(=O)[C@@H](NC(=O)c1nc(-c2ccc(N(C)C)cc2)n2c1CN(C)CCC2)C(C)(C)C [Compound 381, (S)-N-(3,3-dimethyl-1-(methylamino)-1-oxobutan-2-yl)-3-(4-(dimethylamino)phenyl)-8-methyl-6,7,8,9-tetrahydro-5H-imidazo[1,5-a][1,4]diazepine-1-carboxamide] | > 10000 | − |  | 
CNC(=O)[C@@H](NC(=O)c1nc(-c2cccc(N(C)C)c2)n2c1CN(C)CCC2)C(C)(C)C [Compound 382, (S)-N-(3,3-dimethyl-1-(methylamino)-1-oxobutan-2-yl)-3-(3-(dimethylamino)phenyl)-8-methyl-6,7,8,9-tetrahydro-5H-imidazo[1,5-a][1,4]diazepine-1-carboxamide] | > 10000 | − |  | 
CNC(=O)[C@@H](NC(=O)c1nc(-c2cccc(-c3ccccc3)c2)n2c1CN(C)CCC2)C(C)(C)C [Compound 383, (S)-3-(biphenyl-3-yl)-N-(3,3-dimethyl-1-(methylamino)-1-oxobutan-2-yl)-8-methyl-6,7,8,9-tetrahydro-5H-imidazo[1,5-a][1,4]diazepine-1-carboxamide] | > 10000 | − |  | 
CNC(=O)[C@@H](NC(=O)c1nc(-c2cc(F)cc(OC)c2)n2c1CN(C)CCC2)C(C)(C)C [Compound 384, (S)-N-(3,3-dimethyl-1-(methylamino)-1-oxobutan-2-yl)-3-(3-fluoro-5-methoxyphenyl)-8-methyl-6,7,8,9-tetrahydro-5H-imidazo[1,5-a][1,4]diazepine-1-carboxamide] | > 10000 | − |  | 
CNC(=O)[C@@H](NC(=O)c1nc(-c2cccc(S(=O)(=O)N3CCCC3)c2)n2c1CN(C)CCC2)C(C)(C)C [Compound 385, (S)-N-(3,3-dimethyl-1-(methylamino)-1-oxobutan-2-yl)-8-methyl-3-(3-(pyrrolidin-1-ylsulfonyl)phenyl)-6,7,8,9-tetrahydro-5H-imidazo[1,5-a][1,4]diazepine-1-carboxamide] | > 10000 |  | > 10000 | 
CNC(=O)[C@@H](NC(=O)c1nc(-c2cccc(C(=O)N3CCOCC3)c2)n2c1CN(C)CCC2)C(C)(C)C [Compound 386, (S)-N-(3,3-dimethyl-1-(methylamino)-1-oxobutan-2-yl)-8-methyl-3-(3-(morpholine-4-carbonyl)phenyl)-6,7,8,9-tetrahydro-5H-imidazo[1,5-a][1,4]diazepine-1-carboxamide] | > 10000 |  | > 10000 | 
CNC(=O)[C@@H](NC(=O)c1nc(-c2ccc(C(=O)OC)cc2F)n2c1CN(C)CCC2)C(C)(C)C [Compound 387, (S)-methyl 4-(1-(3,3-dimethyl-1-(methylamino)-1-oxobutan-2-ylcarbamoyl)-8-methyl-6,7,8,9-tetrahydro-5H-imidazo[1,5-a][1,4]diazepin-3-yl)-3-fluorobenzoate] | > 10000 |  | > 10000 | 
CNC(=O)[C@@H](NC(=O)c1nc(C2=CCN(C(=O)OC(C)(C)C)CC2)n2c1CN(C)CCC2)C(C)(C)C [Compound 388, (S)-tert-butyl 4-(1-(3,3-dimethyl-1-(methylamino)-1-oxobutan-2-ylcarbamoyl)-8-methyl-6,7,8,9-tetrahydro-5H-imidazo[1,5-a][1,4]diazepin-3-yl)-5,6-dihydropyridine-1(2H)-carboxylate] | > 10000 |  | > 10000 | 
CNC(=O)[C@@H](NC(=O)c1nc(-c2ccc(F)c(C(=O)N3CCOCC3)c2)n2c1CN(C)CCC2)C(C)(C)C [Compound 389, (S)-N-(3,3-dimethyl-1-(methylamino)-1-oxobutan-2-yl)-3-(4-fluoro-3-(morpholine-4-carbonyl)phenyl)-8-methyl-6,7,8,9-tetrahydro-5H-imidazo[1,5-a][1,4]diazepine-1-carboxamide] | > 10000 |  | > 10000 | 
CNC(=O)[C@@H](NC(=O)c1nc(-c2ccc(-n3cccn3)cc2)n2c1CN(C)CCC2)C(C)(C)C [Compound 390, (S)-3-(4-(1H-pyrazol-1-yl)phenyl)-N-(3,3-dimethyl-1-(methylamino)-1-oxobutan-2-yl)-8-methyl-6,7,8,9-tetrahydro-5H-imidazo[1,5-a][1,4]diazepine-1-carboxamide] | > 10000 | − |  | 
CNC(=O)c1cccc(-c2nc(C(=O)N[C@H](C(=O)NC)C(C)(C)C)c3n2CCCN(C)C3)c1 [Compound 391, (S)-N-(3,3-dimethyl-1-(methylamino)-1-oxobutan-2-yl)-8-methyl-3-(3-(methylcarbamoyl)phenyl)-6,7,8,9-tetrahydro-5H-imidazo[1,5-a][1,4]diazepine-1-carboxamide] | > 10000 |  | > 10000 | 
CNC(=O)[C@@H](NC(=O)c1nc(-c2ccc(C(=O)N3CCN(C)CC3)cc2)n2c1CN(C)CCC2)C(C)(C)C [Compound 392, (S)-N-(3,3-dimethyl-1-(methylamino)-1-oxobutan-2-yl)-8-methyl-3-(4-(4-methylpiperazin-1-carbonyl)phenyl)-6,7,8,9-tetrahydro-5H-imidazo[1,5-a][1,4]diazepine-1-carboxamide] |  |  |  | EC50 ([1]; groups >100 nM-10 μM and >10 μM, cAMP, CHO-K1 hCB1, read-out: EC50 HCB1): > 10000 nM; EC50 ([2]; groups >100 nM-10 μM and >10 μM, cAMP, CHO-K1 rCB2, read-out: EC50 RCB2): > 10000 nM
CNC(=O)[C@@H](NC(=O)c1nc(-c2ccc(F)c(OC)c2)n2c1CN(C)CCC2)C(C)(C)C [Compound 393, (S)-N-(3,3-dimethyl-1-(methylamino)-1-oxobutan-2-yl)-3-(4-fluoro-3-methoxyphenyl)-8-methyl-6,7,8,9-tetrahydro-5H-imidazo[1,5-a][1,4]diazepine-1-carboxamide] | > 10000 | + |  | 
CNC(=O)[C@@H](NC(=O)c1nc(-c2ccc(C(=O)N(C)C)cc2)n2c1CN(C)CCC2)C(C)(C)C [Compound 394, (S)-N-(3,3-dimethyl-1-(methylamino)-1-oxobutan-2-yl)-3-(4-(dimethylcarbamoyl)phenyl)-8-methyl-6,7,8,9-tetrahydro-5H-imidazo[1,5-a][1,4]diazepine-1-carboxamide] | > 10000 | − |  | 
CNC(=O)[C@@H](NC(=O)c1nc(-c2ccccn2)n2c1CN(C)CCC2)C(C)(C)C [Compound 395, (S)-N-(3,3-dimethyl-1-(methylamino)-1-oxobutan-2-yl)-8-methyl-3-(pyridin-2-yl)-6,7,8,9-tetrahydro-5H-imidazo[1,5-a][1,4]diazepine-1-carboxamide] | > 10000 | + |  | 
CNC(=O)[C@@H](NC(=O)c1nc(C2=CCCCC2)n2c1CN(C)CCC2)C(C)(C)C [Compound 396, (S)-3-cyclohexenyl-N-(3,3-dimethyl-1-(methylamino)-1-oxobutan-2-yl)-8-methyl-6,7,8,9-tetrahydro-5H-imidazo[1,5-a][1,4]diazepine-1-carboxamide] | > 10000 | + |  | 
CNC(=O)[C@@H](NC(=O)c1nc(/C=C/C(C)(C)C)n2c1CN(C)CCC2)C(C)(C)C [Compound 397, (S,E)-N-(3,3-dimethyl-1-(methylamino)-1-oxobutan-2-yl)-3-(3,3-dimethylbut-1-enyl)-8-methyl-6,7,8,9-tetrahydro-5H-imidazo[1,5-a][1,4]diazepine-1-carboxamide] |  | + |  | +/− HCB1 ([1]; agonist or inverse agonist at hCB1): +
CNC(=O)[C@@H](NC(=O)c1nc(/C=C/COC)n2c1CN(C)CCC2)C(C)(C)C [Compound 398, (S,E)-N-(3,3-dimethyl-1-(methylamino)-1-oxobutan-2-yl)-3-(3-methoxyprop-1-enyl)-8-methyl-6,7,8,9-tetrahydro-5H-imidazo[1,5-a][1,4]diazepine-1-carboxamide] | > 10000 | + |  | 
